# Test results published in US7135466B2 (Kirin Beer Kabushiki Kaisha, priority 1999, dated 2006).
# Where two headings read alike, the source gives them in different places.
# Key:
# [1] = target: T1, PDGF-Ra (Homo sapiens, UniProt P16234); assay: Inhibitory activity against PDGF-Ra phosphorylation by PDGF-AA stimulation using G292; assay type: cell-based; conditions: for IC50: > means inhibition at indicated concentration not more than 50%, < and << not less than 50%, read-out: PDGF (E) IC50; for inhibition at 0.1 µM: G292, at 100 nM, read-out: PDGF (E) inhibition (%) at 100 nM
# T1 construct: host or cells: G-292 human osteosarcoma cells
# T1 sequence (P16234 24-1089): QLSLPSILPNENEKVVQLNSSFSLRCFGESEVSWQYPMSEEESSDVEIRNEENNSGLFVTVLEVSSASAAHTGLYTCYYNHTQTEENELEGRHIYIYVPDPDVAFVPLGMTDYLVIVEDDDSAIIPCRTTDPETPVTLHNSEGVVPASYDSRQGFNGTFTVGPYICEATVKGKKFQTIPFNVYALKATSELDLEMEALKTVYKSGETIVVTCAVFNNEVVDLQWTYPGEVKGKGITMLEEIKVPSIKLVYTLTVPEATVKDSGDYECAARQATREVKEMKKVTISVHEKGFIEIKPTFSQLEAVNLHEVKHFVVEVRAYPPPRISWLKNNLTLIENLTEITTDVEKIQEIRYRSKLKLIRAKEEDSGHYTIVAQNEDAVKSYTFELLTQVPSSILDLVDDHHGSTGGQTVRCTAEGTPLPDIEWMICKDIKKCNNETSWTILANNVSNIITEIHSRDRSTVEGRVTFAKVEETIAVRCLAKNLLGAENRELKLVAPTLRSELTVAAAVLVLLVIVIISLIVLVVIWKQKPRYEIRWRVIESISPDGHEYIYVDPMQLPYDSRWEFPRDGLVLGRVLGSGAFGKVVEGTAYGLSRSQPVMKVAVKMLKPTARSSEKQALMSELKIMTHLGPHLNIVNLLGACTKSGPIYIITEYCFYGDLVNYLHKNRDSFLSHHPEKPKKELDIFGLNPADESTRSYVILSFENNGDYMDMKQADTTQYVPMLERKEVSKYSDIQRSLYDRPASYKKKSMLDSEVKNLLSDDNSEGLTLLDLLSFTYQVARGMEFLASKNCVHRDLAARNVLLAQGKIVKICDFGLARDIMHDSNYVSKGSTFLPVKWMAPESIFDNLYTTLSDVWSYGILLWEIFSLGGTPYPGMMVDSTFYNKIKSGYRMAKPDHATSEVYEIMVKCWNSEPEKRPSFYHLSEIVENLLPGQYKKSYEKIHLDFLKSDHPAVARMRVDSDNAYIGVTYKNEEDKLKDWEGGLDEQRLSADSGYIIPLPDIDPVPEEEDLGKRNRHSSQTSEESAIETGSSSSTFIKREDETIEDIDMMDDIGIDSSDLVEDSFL
# In short: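 Phospho-PDGF-Ra ELISA: capture with PY-20 antiphosphotyrosine, detection with anti-PDGF-Ra and peroxidase secondary, read at 450 nm. Lysates came from G-292 osteosarcoma cells starved in 0.1% FBS, compound-treated 1 hr at 37° C, and stimulated with 50 ng/ml PDGF-AA for 5 min.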
# [2] = target: T2, c-kit (Homo sapiens, UniProt P10721); assay: Inhibitory activity against c-kit autophosphorylation (MO7e cells, h-SCF); assay type: cell-based; conditions: for IC50: MO7e cells, read-out: c-kit IC50
# T2 construct: MO7e (human megakaryocytic leukemia cell line) which had been arrested for 20 hr; endogenous in cells; host or cells: MO7e human megakaryocytic leukemia cell line
# T2 sequence (P10721 26-976): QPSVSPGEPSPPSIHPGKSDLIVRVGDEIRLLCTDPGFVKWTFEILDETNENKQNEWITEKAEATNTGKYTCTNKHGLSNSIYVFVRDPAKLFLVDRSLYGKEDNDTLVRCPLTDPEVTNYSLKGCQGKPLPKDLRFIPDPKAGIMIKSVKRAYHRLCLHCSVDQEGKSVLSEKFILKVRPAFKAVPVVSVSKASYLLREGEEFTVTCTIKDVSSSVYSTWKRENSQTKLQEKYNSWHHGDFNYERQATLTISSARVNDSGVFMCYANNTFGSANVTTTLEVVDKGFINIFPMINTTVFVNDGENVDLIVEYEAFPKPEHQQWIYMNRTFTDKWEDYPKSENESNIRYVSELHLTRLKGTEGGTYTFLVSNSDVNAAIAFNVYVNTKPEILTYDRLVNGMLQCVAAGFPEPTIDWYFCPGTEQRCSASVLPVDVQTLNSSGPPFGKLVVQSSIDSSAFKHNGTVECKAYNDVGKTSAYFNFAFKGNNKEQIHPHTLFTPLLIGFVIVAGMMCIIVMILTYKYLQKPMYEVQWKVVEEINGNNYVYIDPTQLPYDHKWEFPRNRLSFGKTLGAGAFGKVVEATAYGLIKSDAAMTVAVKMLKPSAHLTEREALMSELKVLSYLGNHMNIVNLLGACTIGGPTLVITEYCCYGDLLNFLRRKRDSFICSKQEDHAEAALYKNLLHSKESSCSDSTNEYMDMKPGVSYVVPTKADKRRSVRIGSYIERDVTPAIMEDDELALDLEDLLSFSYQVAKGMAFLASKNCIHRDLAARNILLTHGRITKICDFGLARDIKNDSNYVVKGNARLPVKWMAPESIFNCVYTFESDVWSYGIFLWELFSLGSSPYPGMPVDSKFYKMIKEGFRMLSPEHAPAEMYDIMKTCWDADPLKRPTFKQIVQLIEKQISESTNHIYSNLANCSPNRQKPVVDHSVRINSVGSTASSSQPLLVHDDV
# In short: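 First, human megakaryocytic leukemia MO7e cells arrested 20 hr receive compound for one hour. Second, SCF stimulation (50 ng/ml) runs 5 min, after which cells are solubilized. Third, tyrosine-phosphorylated c-kit in the lysate is quantified by sandwich ELISA with absorbance at 450 nm.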
# [3] = figure within parentheses in >100( )
SMILES,IC50 [1] [nM],"inhibition at 0.1 µM [1, 3] [%]",also measured
"COc1cc2nccc(Oc3ccc(NC(=O)OC(C)c4cccc(Br)c4)cc3)c2cc1OC (stereo not drawn) [Example 117, 1-(3-Bromophenyl)ethyl N-{4-[(6,7-dimethoxy-4-quinolyl)oxy]phenyl}carbamate]",,,IC50 ([1]; Pharmacological Test Example 1): 26 nM; IC50 ([2]; h-SCF 50 ng/ml): 759 nM
"COc1cc2nccc(Oc3ccc(NC(=O)OCCCOc4ccc(Cl)cc4)c(C)c3C)c2cc1OC [Example 28, 3-(4-Chlorophenoxy)propyl N-{4-[(6,7-dimethoxy-4-quinolyl)oxy]-2,3-dimethylphenyl}carbamate]",,,IC50 ([1]; Pharmacological Test Example 1): < 10 nM; IC50 ([2]; h-SCF 50 ng/ml): 118 nM
"COc1cc2nccc(Oc3ccc(NC(=O)OC4CCCN(C)C4)cc3)c2cc1OC (stereo not drawn) [Example 462, 1-Methyl-3-piperidyl N-{4-[(6,7-dimethoxy-4-quinolyl)oxy]phenyl}carbamate]",52,,IC50 ([2]; 50 ng/ml h-SCF): 575 nM
"COc1cc2nccc(Oc3ccc(NC(=O)OC(C)c4ccccc4F)c(C)c3C)c2cc1OC (stereo not drawn) [Example 123, 1-(2-Fluorophenyl)ethyl N-{4-[(6,7-dimethoxy-4-quinolyl)oxy]-2,3-dimethylphenyl}carbamate]",,,IC50 ([1]; Pharmacological Test Example 1): < 10 nM; IC50 ([2]; h-SCF 50 ng/ml): 207 nM
"COc1ccc(CCC(=O)NC(=S)Nc2ccc(Oc3ccnc4cc(OC)c(OC)cc34)c(Cl)c2)cc1OC [Example 712, N-{3-Chloro-4-[(6,7-dimethoxy-4-quinolyl)oxy]phenyl}-N′-[3-(3,4-dimethoxyphenyl)propanoyl]thiourea]",83,,
"COc1cc2nccc(Oc3cc(C)c(NC(=S)NN4CCCCC4)cc3C)c2cc1OC [Example 522, N-{4-[(6,7-Dimethoxy-4-quinolyl)oxy]-2,5-dimethylphenyl}-N′-(1-piperidinyl)thiourea]",> 100,,
"COc1cc2ncnc(Oc3ccc(NC(=O)OC4CCCN(C)C4)cc3)c2cc1OC (stereo not drawn) [Example 465, 1-Methyl-3-piperidyl N-{4-[(6,7-dimethoxy-4-quinazolinyl)oxy]phenyl}carbamate]",56,,
"COc1cc2nccc(Oc3ccc(NC(=O)OC(C#N)c4ccccc4)cc3)c2cc1OC (stereo not drawn) [Example 453, Cyano(phenyl)methyl N-{4-[(6,7-dimethoxy-4-quinolyl)oxy]phenyl}carbamate]",> 100,1,
"CCN(C(=O)OCc1ccccc1OC)c1ccc(Oc2ncnc3cc(OC)c(OC)cc23)cc1Cl [Example 485, 2-Methoxybenzyl N-{2-chloro-4-[(6,7-dimethoxy-4-quinazolinyl)oxy]phenyl}-N-ethylcarbamate]",> 100,35,
"COc1cc2ncnc(Oc3ccc(NC(=O)OC(C)c4ccc(F)cc4)c(Cl)c3)c2cc1OC (stereo not drawn) [Example 106, 1-(4-Fluorophenyl)ethyl N-{2-chloro-4-[(6,7-dimethoxy-4-quinazolinyl)oxy]phenyl}carbamate]",,,IC50 ([1]; Pharmacological Test Example 1): 12 nM
"COc1cc2nccc(Oc3ccc(NC(=O)OC4CCN(C)CC4)c(C)c3C)c2cc1OC [Example 468, 1-Methyl-4-piperidyl N-{4-[(6,7-dimethoxy-4-quinolyl)oxy]-2,3-dimethylphenyl}carbamate]",> 100,20,
"COc1cc2nccc(Oc3ccc(NC(=O)OC(c4ccccc4)C(C)C)c(C)c3C)c2cc1OC (stereo not drawn) [Example 196, 2-Methyl-1-phenylpropyl N-{4-[(6,7-dimethoxy-4-quinolyl)oxy]-2,3-dimethylphenyl}carbamate]",,,IC50 ([1]; Pharmacological Test Example 1): 49 nM
"COc1cc2nccc(Oc3ccc(NC(=O)OCCC4CCCCC4)cc3)c2cc1OC [Example 353, 2-Cyclohexylethyl N-{4-[(6,7-dimethoxy-4-quinolyl)oxy]phenyl}carbamate]",,,IC50 ([1]; Pharmacological Test Example 1): < 10 nM
"C#CCC(CC)OC(=O)N(C)c1ccc(Oc2ncnc3cc(OC)c(OC)cc23)cc1 (stereo not drawn) [Example 495, 1-Ethyl-3-butynyl N-{4-[(6,7-dimethoxy-4-quinazolinyl)oxy]phenyl}-N-methylcarbamate]",65,,
"COc1cc2nccc(Oc3ccc(NC(=S)NNC4CCCCC4)c(C)c3C)c2cc1OC [Example 520, N-{4-[(6,7-Dimethoxy-4-quinolyl)oxy]-2,3-dimethylphenyl}-N′-(N-cyclohexylamino)thiourea]",> 100,43,
"COc1cc2nccc(Oc3cc(C)c(NC(=S)NC(=O)c4cc(C)oc4C)cc3C)c2cc1OC [Example 717, N-{4-[(6,7-Dimethoxy-4-quinolyl)oxy]-2,5-dimethylphenyl}-N′-[(2 5-dimethyl-3-furyl)carbonyl]thiourea]",> 100,8,
"COc1cc2nccc(Oc3cc(C)c(NC(=O)OCCCN4CCCCC4)cc3C)c2cc1OC [Example 414, 3-Piperidinopropyl N-{4-[(6,7-dimethoxy-4-quinolyl)oxy]-2,5-dimethylphenyl}carbamate]",> 100,27,
"COc1cc2nccc(Oc3ccc(NC(=S)NC(=O)C(C)Oc4ccccc4)cc3)c2cc1OC (stereo not drawn) [Example 745, N-{4-[(6,7-Dimethoxy-4-quinolyl)oxy]phenyl}-N′-(2-phenoxypropanoyl)thiourea]",53,,
"CCN(C(=O)OCc1ccccc1Cl)c1ccc(Oc2ncnc3cc(OC)c(OC)cc23)cc1Cl [Example 487, 2-Chlorobenzyl N-{2-chloro-4-[(6,7-dimethoxy-4-quinazolinyl)oxy]phenyl}-N-ethylcarbamate]",> 100,31,
"COc1cc2nccc(Oc3ccc(NC(=O)OCCCCN(C)C)c(C)c3C)c2cc1OC [Example 193, 4-(Dimethylamino)butyl N-{4-[(6,7-dimethoxy-4-quinolyl)oxy]-2,3-dimethylphenyl}carbamate]",,,IC50 ([1]; Pharmacological Test Example 1): 57 nM
"COc1cc2nccc(Oc3cc(C)c(NC(=O)OCN4C(=O)c5ccccc5C4=O)cc3C)c2cc1OC [Example 417, (1,3-Dioxo-2,3-dihydro-1H-2-isoindolyl)methyl N-{4-[(6,7-dimethoxy-4-quinolyl)oxy]-2,5-dimethylphenyl}carbamate]",> 100,42,
"CCC(Oc1ccccc1)C(=O)NC(=S)Nc1ccc(Oc2ccnc3cc(OC)c(OC)cc23)c(Cl)c1 (stereo not drawn) [Example 742, N-{3-Chloro-4-[(6,7-dimethoxy-4-quinolyl)oxy]phenyl}-N′-(2-phenoxybutanoyl)thiourea]",92,,

# Now from value to compound, other results behind:
IC50 [1] [nM],"inhibition at 0.1 µM [1, 3] [%]",SMILES,also measured
> 100,,"COc1cc2nccc(Oc3cc(C)c(NCCCOc4ccccc4Cl)cc3C)c2cc1OC [Example 892, N-[3-(2-Chlorophenoxy)propyl]-N-{4-[(6,7-dimethoxy-4-quinolyl)oxy]-2,5-dimethylphenyl}amine]","inhibition at 0.1 µM ([1]; figure in parentheses in >100( )): 25%; inhibition at 1 µM ([2]; Mo7e, figure in parentheses in −( ), at 1000 nM): 30%"
> 100,,"COc1cc2nccc(Oc3ccc(NC(=S)NC(=O)c4ccc(Br)cc4)c(Cl)c3)c2cc1OC [Example 1167, N-(4-Bromobenzoyl)-N′-{2-chloro-4-[(6,7-dimethoxy-4-quinolyl)oxy]phenyl}thiourea]",
13,,"COc1cc2ncnc(Oc3ccc(NC(=S)NC(=O)c4c(Cl)cccc4Cl)cc3)c2cc1OC [Example 1162, N-(2,6-Dichlorobenzoyl)-N′-{4-[(6,7-dimethoxy-4-quinazolinyl)oxy]phenyl}thiourea]",
> 100,3,"CCCCCCOc1ccc(C(=O)NC(=S)Nc2ccc(Oc3ccnc4cc(OC)c(OC)cc34)cc2)cc1 [Example 755, N-{4-[(6,7-Dimethoxy-4-quinolyl)oxy]phenyl}-N′-[4-(hexyloxy)benzoyl]thiourea]",
24,,"COc1cc2nccc(Oc3ccc(NC(=S)NC(=O)C(C)(C)C)cc3Cl)c2cc1OC [Example 1187, N-{3-Chloro-4-[(6,7-dimethoxy-4-quinolyl)oxy]phenyl}-N′-(2,2-dimethylpropanoyl)thiourea]",
14,,"COc1cc2nccc(Oc3ccc(OCCCOc4c(C)cccc4C)cc3)c2cc1OC [Example 799, 4-{4-[3-(2,6-Dimethylphenoxy)propoxy]phenoxy}-6,7-dimethoxyquinoline]",
< 10,,"COc1cc2ncnc(Oc3ccc(NC(=S)NC(=O)c4ccccc4C(F)(F)F)cc3)c2cc1OC [Example 1157, N-{4-[(6,7-Dimethoxy-4-quinazolinyl)oxy]phenyl}-N′-[2-(trifluoromethyl)benzoyl]thiourea]",
< 10,,"COc1cc2ncnc(Oc3ccc(NC(=S)NC(=O)c4ccccc4F)cc3)c2cc1OC [Example 1161, N-{4-[(6,7-Dimethoxy-4-quinazolinyl)oxy]phenyl}-N′-(2-fluorobenzoyl)thiourea]",
80,,"CCN(C(=S)NC(=O)CCc1ccccc1OC)c1ccc(Oc2ccnc3cc(OC)c(OC)cc23)cc1 [Example 1142, N-{4-[(6,7-Dimethoxy-4-quinolyl)oxy]phenyl}-N-ethyl-N′-[3-(2-methoxyphenyl)propanoyl]thiourea]",
> 100,,"COc1cc2ncnc(Oc3ccc(O)cc3)c2cc1OC [Example 773, 4-[(6,7-Dimethoxy-4-quinazolinyl)oxy]phenol]",
> 100,17,"COC(=O)COc1ccc(Oc2ncnc3cc(OC)c(OC)cc23)cc1 [Example 774, Methyl 2-{4-[(6,7-dimethoxy-4-quinazolinyl)oxy]phenoxy}acetate]",
> 100,22,"COc1cc2ncnc(Oc3ccc(OCC(=O)O)cc3)c2cc1OC [Example 775, 2-{4-[(6,7-Dimethoxy-4-quinazolinyl)oxy]phenoxy}acetic acid]",
